Data from ChEMBL document CHEMBL5385895, “Design, synthesis, biological evaluation of urea substituted 1,2,5-oxadiazole-3-carboximidamides as novel indoleamine 2,3-dioxygenase-1 (IDO1) inhibitors” (Eur J Med Chem, 2023).
The source made the active and inactive calls. The calls are words filed in the database; no cut-off is given here.

Tests used:
[1] = Toxicity in C57BL/6 mouse implanted with mouse LLC cells assessed as change in body weight at 100 to 200 mg/kg, po bid treated for 21 days; format: organism-based, Lewis lung carcinoma; conditions: in vivo, 504 h, dose 100-200 mg/kg, time 21 day
[2] = molecular target: T1, Indoleamine 2,3-dioxygenase 1 (Homo sapiens, UniProt P14902); experiment: Inhibition of human recombinant IDO1 assessed as reduction in N-formylkynurenine formation using L-tryptophan as substrate preincubated for 30 mins followed by substrate addition and measured after 20 mins by SpectraMax microplate reader analysis
T1 sequence (P14902 whole entry): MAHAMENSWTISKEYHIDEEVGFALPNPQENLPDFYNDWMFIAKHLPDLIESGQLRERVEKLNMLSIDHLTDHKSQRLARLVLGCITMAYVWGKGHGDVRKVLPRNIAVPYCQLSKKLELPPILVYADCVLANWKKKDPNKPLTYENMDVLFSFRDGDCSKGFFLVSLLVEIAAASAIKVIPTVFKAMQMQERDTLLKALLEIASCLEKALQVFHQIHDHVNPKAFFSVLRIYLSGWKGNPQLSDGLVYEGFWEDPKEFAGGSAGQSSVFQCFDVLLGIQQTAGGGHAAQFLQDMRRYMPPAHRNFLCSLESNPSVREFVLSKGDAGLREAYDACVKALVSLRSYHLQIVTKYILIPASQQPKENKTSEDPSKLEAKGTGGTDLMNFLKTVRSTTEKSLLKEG

[3] = molecular target: T1, Indoleamine 2,3-dioxygenase 1; experiment: Inhibition of IDO1 in IFN-gamma-induced human HeLa cells assessed as reduction in N-formylkynurenine formation using L-tryptophan as substrate preincubated for 24 hrs followed by substrate addition and measured after 30 mins by SpectraMax microplate reader analysis; format: cell-based
[4] = molecular target: T2, Indoleamine 2,3-dioxygenase 2 (Homo sapiens) (UniProt Q6ZQW0); experiment: Inhibition of human recombinant IDO2 assessed as reduction in N-formylkynurenine formation using L-tryptophan as substrate at 1 uM preincubated for 30 mins followed by substrate addition and measured after 20 mins by SpectraMax microplate reader analysis; conditions: time 50.0 min
T2 sequence (whole entry): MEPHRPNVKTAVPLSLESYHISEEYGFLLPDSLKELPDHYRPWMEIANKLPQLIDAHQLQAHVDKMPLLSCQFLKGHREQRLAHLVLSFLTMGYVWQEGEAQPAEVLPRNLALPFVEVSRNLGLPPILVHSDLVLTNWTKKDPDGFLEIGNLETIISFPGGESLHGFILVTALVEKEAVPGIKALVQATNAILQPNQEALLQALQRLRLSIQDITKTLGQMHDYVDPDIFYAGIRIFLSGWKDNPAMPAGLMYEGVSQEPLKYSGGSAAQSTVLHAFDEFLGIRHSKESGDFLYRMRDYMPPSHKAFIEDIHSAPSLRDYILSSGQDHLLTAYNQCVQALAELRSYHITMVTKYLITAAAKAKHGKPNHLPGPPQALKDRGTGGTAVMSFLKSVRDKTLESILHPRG

[5] = molecular target: Tryptophan 2,3-dioxygenase (Homo sapiens) (UniProt P48775); experiment: Inhibition of human recombinant TDO assessed as reduction in N-formylkynurenine formation using L-tryptophan as substrate at 1 uM preincubated for 30 mins followed by substrate addition and measured after 20 mins by SpectraMax microplate reader analysis; conditions: time 50.0 min
Tryptophan 2,3-dioxygenase (Homo sapiens), sequence (P48775 whole entry, looked up): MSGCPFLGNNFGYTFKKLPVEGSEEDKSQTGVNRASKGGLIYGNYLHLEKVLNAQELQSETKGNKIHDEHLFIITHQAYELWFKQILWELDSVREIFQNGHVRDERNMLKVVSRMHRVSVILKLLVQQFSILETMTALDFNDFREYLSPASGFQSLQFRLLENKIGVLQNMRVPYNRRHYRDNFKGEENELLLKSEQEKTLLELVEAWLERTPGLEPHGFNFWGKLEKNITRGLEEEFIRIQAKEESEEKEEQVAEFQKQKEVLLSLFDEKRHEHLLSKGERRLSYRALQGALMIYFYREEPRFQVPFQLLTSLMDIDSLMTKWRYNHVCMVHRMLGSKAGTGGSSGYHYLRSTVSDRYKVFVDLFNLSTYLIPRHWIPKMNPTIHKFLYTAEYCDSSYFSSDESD

[6] = Apparent permeability of the compound across apical to basolateral side in dog MDCK-II cells measured for 2 hrs by LC-MS/MS analysis; format: ADME, cell-based, Canis lupus familiaris
[7] = Apparent permeability of the compound across basolateral to apical side in dog MDCKII cells measured for 2 hrs by LC-MS/MS analysis; format: ADME, cell-based, Canis lupus familiaris, MDCK-II; conditions: MDCK
[8] = AUC (0 to t) in Sprague-Dawley rat at 25 mg/kg, po by LC-MS/MS analysis; format: ADME, organism-based; design: dose 25 mg/kg, route po; conditions: in vivo
[9] = AUC (0 to infinity) in Sprague-Dawley rat at 25 mg/kg, po by LC-MS/MS analysis; format: ADME, organism-based; design: dose 25 mg/kg, route po; conditions: in vivo
[10] = Tmax in Sprague-Dawley rat at 25 mg/kg, po by LC-MS/MS analysis; format: ADME, organism-based; conditions: in vivo
[11] = Cmax in Sprague-Dawley rat at 25 mg/kg, po by LC-MS/MS analysis; format: ADME, organism-based; design: dose 25 mg/kg, route po; conditions: in vivo
[12] = Half life in Sprague-Dawley rat at 25 mg/kg, po by LC-MS/MS analysis; format: ADME, organism-based; conditions: in vivo
[13] = Oral bioavailability in Sprague-Dawley rat at 25 mg/kg by LC-MS/MS analysis; format: ADME, organism-based; conditions: in vivo
[14] = AUC (0 to t) in Sprague-Dawley rat at 5 mg/kg, iv by LC-MS/MS analysis; format: ADME, organism-based; design: dose 5 mg/kg, route iv; conditions: in vivo
[15] = AUC (0 to infinity) in Sprague-Dawley rat at 5 mg/kg, iv by LC-MS/MS analysis; format: ADME, organism-based; design: dose 5 mg/kg, route iv; conditions: in vivo
[16] = Tmax in Sprague-Dawley rat at 5 mg/kg, iv by LC-MS/MS analysis; format: ADME, organism-based; conditions: in vivo
[17] = Cmax in Sprague-Dawley rat at 5 mg/kg, iv by LC-MS/MS analysis; format: ADME, organism-based; design: dose 5 mg/kg, route iv; conditions: in vivo
[18] = Half life in Sprague-Dawley rat at 5 mg/kg, iv by LC-MS/MS analysis; format: ADME, organism-based; conditions: in vivo
[19] = Volume of distribution in Sprague-Dawley rat at 5 mg/kg, iv by LC-MS/MS analysis; format: ADME, organism-based; conditions: in vivo
[20] = Plasma clearance in Sprague-Dawley rat at 5 mg/kg, iv by LC-MS/MS analysis; format: ADME, organism-based
[21] = Anti-tumor efficacy against mouse LLC cells implanted in C57BL/6 mouse assessed as tumor growth inhibition at 200 mg/kg, po bid treated for 21 days relative to control; format: functional; conditions: Lewis lung carcinoma, 504 h, time 21 day, read-out: TGI
[22] = Anti-tumor efficacy against mouse LLC cells implanted in C57BL/6 mouse assessed as tumor growth inhibition at 100 mg/kg, po bid treated for 21 days relative to control; format: functional; conditions: Lewis lung carcinoma, 504 h, time 21 day, read-out: TGI
[23] = Toxicity in C57BL/6 mouse implanted with mouse LLC cells assessed as mortality at 100 to 200 mg/kg, po bid treated for 21 days; format: organism-based, Lewis lung carcinoma; conditions: in vivo, 504 h, dose 100-200 mg/kg, time 21 day
[24] = Toxicity in C57BL/6 mouse implanted with mouse LLC cells assessed as pathological changes in heart at 100 to 200 mg/kg, po bid treated for 21 days by H and E staining assay; format: organism-based, Lewis lung carcinoma; conditions: in vivo, 504 h, dose 100-200 mg/kg, time 21 day
[25] = Toxicity in C57BL/6 mouse implanted with mouse LLC cells assessed as pathological changes in liver at 100 to 200 mg/kg, po bid treated for 21 days by H and E staining assay; format: organism-based, Lewis lung carcinoma; conditions: in vivo, 504 h, dose 100-200 mg/kg, time 21 day
[26] = Toxicity in C57BL/6 mouse implanted with mouse LLC cells assessed as pathological changes in spleen at 100 to 200 mg/kg, po bid treated for 21 days by H and E staining assay; format: organism-based, Lewis lung carcinoma; conditions: in vivo, 504 h, dose 100-200 mg/kg, time 21 day
[27] = Toxicity in C57BL/6 mouse implanted with mouse LLC cells assessed as pathological changes in lung at 100 to 200 mg/kg, po bid treated for 21 days by H and E staining assay; format: organism-based, Lewis lung carcinoma; conditions: in vivo, 504 h, dose 100-200 mg/kg, time 21 day
[28] = Toxicity in C57BL/6 mouse implanted with mouse LLC cells assessed as pathological changes in kidney at 100 to 200 mg/kg, po bid treated for 21 days by H and E staining assay; format: organism-based, Lewis lung carcinoma; conditions: in vivo, 504 h, dose 100-200 mg/kg, time 21 day
[29] = Toxicity in C57BL/6 mouse implanted with mouse LLC cells assessed as liver function by measuring change in total protein level at 100 to 200 mg/kg, po bid treated for 21 days […]; format: organism-based, Lewis lung carcinoma; conditions: in vivo, 504 h, dose 100-200 mg/kg, time 21 day
[30] = Toxicity in C57BL/6 mouse implanted with mouse LLC cells assessed as liver function by measuring change in AST level at 100 to 200 mg/kg, po bid treated for 21 days […]; format: organism-based, Lewis lung carcinoma; conditions: in vivo, 504 h, dose 100-200 mg/kg, time 21 day
[31] = Toxicity in C57BL/6 mouse implanted with mouse LLC cells assessed as liver function by measuring change in ALT level at 100 to 200 mg/kg, po bid treated for 21 days […]; format: organism-based, Lewis lung carcinoma; conditions: in vivo, 504 h, dose 100-200 mg/kg, time 21 day
[32] = Toxicity in C57BL/6 mouse implanted with mouse LLC cells assessed as kidney function by measuring change in BUN level at 100 to 200 mg/kg, po bid treated for 21 days […]; format: organism-based, Lewis lung carcinoma; conditions: in vivo, 504 h, dose 100-200 mg/kg, time 21 day
HeLa = experiment: cells; conditions: Homo sapiens, 24 h
HCT-116 = experiment: cells; conditions: Homo sapiens, HCT-116, 24 h
CT26 = experiment: cells; conditions: Mus musculus, CT26, 24 h
cells = conditions: Mus musculus, Lung cancer cell line, 24 h
in vitro = conditions: dog, MDCK

In the case of `CCNC(=O)Nc1nonc1/C(=N/O)Nc1ccc(F)c(Br)c1`, the Activity [1] is reported as “Non-Toxic”, the IC50 [2] is reported as 0.0674 µM and the IC50 [3] is reported as 0.0176 µM. For the same molecule, the inhibition [4] was “inactive”, the inhibition [5] was “inactive” and the Papp A→B at 2 h [6] was 38.6 ×10⁻⁶ cm/s. It also gave a Papp B→A at 2 h [7] of 22.6 ×10⁻⁶ cm/s, an AUC(0-t) [8] of 2220 ng·h/mL and an AUC(0-inf) [9] of 2250 ng·h/mL. It also gave a Tmax [10] of 1 h, a Cmax [11] of 1690 ng/mL and a half-life [12] of 1.31 h. For the same molecule, the bioavailability [13] was 16.8%, the AUC(0-t) [14] was 2640 ng·h/mL and the AUC(0-inf) [15] was 2690 ng·h/mL. It also gave a Tmax [16] of 1.98 min, a Cmax [17] of 10000 ng/mL and a half-life [18] of 1.62 h. For the same molecule, the Vd [19] was 4.01 L/kg, the clearance [20] was 32.3 mL/min/kg and the inhibition in vivo at 200 mg/kg [21] was 53.1%. The inhibition in vivo at 100 mg/kg [22] was 41.5%, the Activity [23] was “Non-Toxic” and the Activity [24] was “Non-Toxic”. For the same molecule, the Activity [25] was “Non-Toxic”, the Activity [26] was “Non-Toxic” and the Activity [27] was “Non-Toxic”. The Activity [28] was “Non-Toxic”, the Activity [29] was “Non-Toxic” and the Activity [30] was “Non-Toxic”. The Activity [31] was “Non-Toxic”, the Activity [32] was “Non-Toxic” and the IC50 (HeLa) was 46.1 µM. For the same molecule, the IC50 (HCT-116) was 19.6 µM, the IC50 (CT26) was 34.9 µM and the IC50 (cells) was over 50 µM. It also gave an efflux ratio at 2 h (in vitro) of 0.58.
